Reference: PubChem BioAssay (NCI)
“And” between values parts separate entries of the source, which are not always exact repeats. Equal values may be shown once.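 Where inhibition never reached the appropriate level, the endpoint shown equals the highest concentration tested. Otherwise, values were interpolated linearly from a five-concentration, 48-hour dose response in 96-well plates. Abbreviation: GI50, concentration required for 50% inhibition of growth. TGI denotes the concentration required for complete inhibition of growth.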

Assays:
Experiment in all cases: growth of human tumour cells (NCI), 48 h
[1] = tested on: HT29 colon
[2] = tested on: NCI-H23 lung
[3] = tested on: SNB-19 CNS
[4] = tested on: NCI-H226 lung
[5] = tested on: KM12 colon
[6] = tested on: A549 NSCLC
[7] = tested on: SR leukemia
[8] = tested on: MDA-MB-231 breast
[9] = tested on: DLD-1 colon
[10] = tested on: M19-MEL melanoma

Compound	TGI [1] [µM]	TGI [2] [µM]	TGI [3] [µM]	TGI [4] [µM]	TGI [5] [µM]	TGI [6] [µM]	TGI [7] [µM]	TGI [8] [µM]	GI50 [1] [µM]	GI50 [2] [µM]	GI50 [3]	GI50 [4] [µM]	GI50 [5] [µM]	GI50 [6] [µM]	GI50 [7] [µM]	GI50 [8] [µM]	TGI [9] [µM]	TGI [10] [µM]	GI50 [9] [µM]	GI50 [10] [µM]
COc1cc2oc3cc(=O)cc4oc(-c5ccccc5)cc(c2c2c1CCC(c1ccccc1)O2)c43 (stereo unspecified)	66.2	> 100	> 100	> 100	65.5	> 100	> 100	68.1	–	–	–	–	–	–	–	–	–	–	–	–
COc1cc2c3c(n(CCCCN)c(=O)c2cc1OC)-c1cc2c(cc1C3=O)OCO2	25	3.09	6.75	1.58	6.32	11.9	0.417	1.56	0.586	0.676	0.464 µM	0.492	1.72	1.06	0.115	0.442	–	–	–	–
Cc1ccc(-c2nc(C#N)c(S(=O)(=O)n3nc(C)cc3N)o2)cc1	5.45	37.3	28.4	41.4	33.8	39.8	6.91	6.31	2.37	13.9	14.1 µM	15.6	16.5	19.6	2.06	2.42	–	–	–	–
COc1cc(NC(C)CCCN)c2ncccc2c1 (stereo unspecified)	> 95.4	> 100	> 100	> 100	> 100	> 100	–	> 100	–	–	39.8 µM and > 100 µM	–	–	–	–	–	> 100	> 100	–	–
O=C(CC(=O)C1=CNc2ccccc2S1)C(=O)Nc1ccc(Cl)cc1	> 50	> 50	> 50	> 50	> 50	> 50	–	–	–	–	–	–	–	–	–	–	> 50	> 50	–	–
COC(=O)[C@@]12OC[C@]34[C@H]([C@@H](O)[C@@H]1O)[C@@]1(C)[C@H](O)C(=O)C=C(C)[C@@H]1C[C@H]3OC(=O)C(OC(C)=O)[C@@H]24 (stereo partly specified)	0.136	0.0567	0.299	0.0992	0.136	0.294	0.0425	0.366	0.0303	0.0187	0.0232 µM	0.025	0.03	0.0381	0.0195	0.0979	–	–	–	–
C=CCC1(O)c2ccccc2C(=O)c2c(NCCN(CC(=O)OCC)CC(=O)OCC)cccc21 (stereo unspecified)	> 100	> 100	> 100	> 100	> 100	> 100	> 100	> 100	> 100	> 100	> 100 µM	> 100	> 100	> 100	46.5	> 100	–	–	–	–
C1COCCN1.C1COCCN1.NC1CCCCC1N.[Cl-].[Pt+2] (stereo unspecified)	> 100	> 100	> 100	> 100	> 100	> 100	–	–	> 100	> 100	> 100 µM	> 100	> 100	> 100	–	–	> 100	> 100	> 100	> 100
